Measured values published in patent US11905284B2, “5,7-dihydro-pyrrolo-pyridine derivatives” (PFIZER INC., priority 2016, dated 2024).

Target: T1, Human M4 receptors (Homo sapiens, UniProt P08173)
T1 construct: expressed in transfected cells; host or cells: HEK293 cells with Promega GloSensor cAMP technology, stably expressing hM4
T1 sequence (P08173 1-479): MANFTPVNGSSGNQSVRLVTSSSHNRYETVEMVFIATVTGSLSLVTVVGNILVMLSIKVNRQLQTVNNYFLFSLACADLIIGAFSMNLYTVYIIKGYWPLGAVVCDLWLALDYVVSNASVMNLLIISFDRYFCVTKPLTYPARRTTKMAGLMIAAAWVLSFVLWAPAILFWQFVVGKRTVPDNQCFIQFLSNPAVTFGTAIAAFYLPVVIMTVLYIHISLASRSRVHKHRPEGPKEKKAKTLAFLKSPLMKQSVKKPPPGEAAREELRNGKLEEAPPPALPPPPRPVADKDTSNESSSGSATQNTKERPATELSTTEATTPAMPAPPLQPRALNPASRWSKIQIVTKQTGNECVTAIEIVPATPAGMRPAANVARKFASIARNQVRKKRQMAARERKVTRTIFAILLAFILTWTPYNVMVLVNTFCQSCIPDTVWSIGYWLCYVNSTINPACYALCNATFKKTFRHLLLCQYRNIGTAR
Experiment: M4 PAM cAMP assay (GloSensor)
Assay type: cell-based
Conditions: for Emax: HEK293, read-out: M4 glosensor EC50 Mean Asymptote Maximum (%); for EC50 / M4 glosensor EC50 Mean Asymptote Maximum (%): HEK293 GloSensor cells expressing hM4, with EC20 acetylcholine and isoproterenol, geometric mean of 2-4 determinations unless otherwise indicated; for M4 glosensor EC50 Mean Asymptote Maximum (%): Emax = maximum asymptote of fitted dose response curve
Procedure: The M4 PAM binding affinity for the compounds of the present invention was determined utilizing the following biological assay(s):
The M4 cAMP assay was designed to determine the potency and efficacy of muscarinic positive allosteric modulators (PAMs). Human M4 receptors were stably expressed in Human embryonic kidney (HEK293) cells expressed with the Promega GloSensor™ cAMP technology.
HEK293 GloSensor cells expressing hM4 cells were cultured in growth media containing DMEM with 10% FBS, 1% Penicillin/Streptomycin, 500 μg/mL G418, 200 μg/mL Hygomycin B, and 1% Glutamax. […] Plates were incubated at 37 degrees C. and 5% CO2 for use after 24 hours.
Compound Preparation for Agonist Screen:
Each compound was tested at 10 concentrations in duplicate per experiment. Compound plates are spotted with 0.2 μL/well agonist at 400 times the final assay concentration. Positive and negative controls for the compound alone agonist response was 10 μM acetylcholine (Sigma #A2661) and DMSO, respectively. EC20 of acetylcholine was also used to define PAM activities.
Promega GloSensor™ reagent (Promega #E1291) had previously been aliquotted. […] Stock solution was mixed. Culture media in cell plates was discarded, then replaced with 40 μL/well pre-warmed equilibration media, then incubated in the dark at room temperature for 2 hours. During the incubation, stimulation media containing agonist and EC20 acetylcholine was prepared. […] Compounds are now 5 times the final assay concentration. The plate was mixed using a plate agitator. At the end of the 2 hour GloSensor™ incubation, add 10 μL of the CO2-independent media containing agonist, EC20 acetylcholine and isoproterenol to the cell plate. Cell plate was then incubated for 10 minutes at room temperature, and then read using an EnVision plate reader (Perkin Elmer).
Data was exported from the EnVision plate reader. The percent effect for each well was determined using the mean values for the positive and negative controls on each plate for each read, specifically 100*(compound−negative control)/(positive control−negative control). Dose response curves were fitted to the compound percent effect data using a 4-parameter logistic fit model. Data was reported as EC50 and Emax, with the Emax as the maximum asymptote of the fitted dose response curve.

| Structure (SMILES) | Emax [%] | EC50 [nM] | M4 glosensor EC50 Mean Asymptote Maximum (%) |
| --- | --- | --- | --- |
| Cc1cc(C)c2c(n1)CN(C(=O)C[C@H]1C[C@@H]1c1ccc3cncnc3c1)C2 (racemic) [Example 76, 1-(2,4-dimethyl-5,7-dihydro-6H-pyrrolo[3,4-b]pyridin-6-yl)-2-[trans-2-(quinazolin-7-yl)cyclopropyl]ethanone] | 45 | 1400 |  |
| Cc1cc(C)c2c(n1)CN(C(=O)C[C@H]1C[C@@H]1c1ccccc1)C2 (racemic) [Example 77, 1-(2,4-dimethyl-5,7-dihydro-6H-pyrrolo[3,4-b]pyridin-6-yl)-2-[trans-2-phenylcyclopropyl]ethanone] | 176 | 2880 |  |
| Cc1cc(C)c2c(n1)CN(C(=O)CC1CN(c3cccnc3)C1)C2C (single isomer, unassigned) [Example 14, 2-[1-(Pyridin-3-yl)azetidin-3-yl]-1-(2,4,5-trimethyl-5,7-dihydro-6H-pyrrolo[3,4-b]pyridin-6-yl)ethanone] |  | 9080 | 62.5 |
| Cc1cc(C)c2c(n1)CN(C(=O)CC1CN(c3cccnc3)C1)C2C (single isomer, unassigned) [Example 15, 2-[1-(Pyridin-3-yl)azetidin-3-yl]-1-(2,4,5-trimethyl-5,7-dihydro-6H-pyrrolo[3,4-b]pyridin-6-yl)ethanone] |  | 28 | 106 |
| Cc1nc2c(c(C)c1C)CN(C(=O)C[C@@H]1C[C@H]1c1cccnc1)C2 (single isomer, unassigned) [Example 37, 2-[trans-2-(pyridin-3-yl)cyclopropyl]-1-(2,3,4-trimethyl-5,7-dihydro-6H-pyrrolo[3,4-b]pyridin-6-yl)ethanone] |  | 1790 | 85.8 |
| COCc1cc(C)c2c(n1)CN(C(=O)CC1CN(c3ccnc(C(F)(F)F)c3)C1)C2 [Example 7, 1-[2-(methoxymethyl)-4-methyl-5,7-dihydro-6H-pyrrolo[3,4-b]pyridin-6-yl]-2-{1-[2-(trifluoromethyl)pyridin-4-yl]azetidin-3-yl}ethanone] | 99.8 | 17.4 |  |
| COCc1cc(C)c2c(n1)CN(C(=O)CC1CN(c3ccnc(OC(F)F)c3)C1)C2 [Example 8, 2-{1-[2-(Difluoromethoxy)pyridin-4-yl]azetidin-3-yl}-1-[2-(methoxymethyl)-4-methyl-5,7-dihydro-6H-pyrrolo[3,4-b]pyridin-6-yl]ethanone] | 99.1 | 22.7 |  |
| Cc1cc(CO)nc2c1CN(C(=O)CC1CN(c3cccnc3)C1)C2 [Example 9, 1-[2-(Hydroxymethyl)-4-methyl-5,7-dihydro-6H-pyrrolo[3,4-b]pyridin-6-yl]-2-[1-(pyridin-3-yl)azetidin-3-yl]ethanone] | 86.5 | 17.2 |  |
| Cc1c(C(F)F)nc2c(c1C)CN(C(=O)CC1CN(c3ccnc(OC(F)F)c3)C1)C2 [Example 10, 2-{1-[2-(Difluoromethoxy)pyridin-4-yl]azetidin-3-yl}-1-[2-(difluoromethyl)-3,4-dimethyl-5,7-dihydro-6H-pyrrolo[3,4-b]pyridin-6-yl]ethanone] | 99.5 | 28.9 |  |
| Cc1ccc([C@@H]2C[C@H]2CC(=O)N2Cc3nc(C)cc(C)c3C2)cn1 [Example 16, 1-(2,4-Dimethyl-5,7-dihydro-6H-pyrrolo[3,4-b]pyridin-6-yl)-2-[(1S,2R)-2-(6-methylpyridin-3-yl)cyclopropyl]ethanone] |  | > 10000 |  |
| Cc1ccc([C@H]2C[C@@H]2CC(=O)N2Cc3nc(C)cc(C)c3C2)cn1 [Example 17, 1-(2,4-Dimethyl-5,7-dihydro-6H-pyrrolo[3,4-b]pyridin-6-yl)-2-[(1R,2S)-2-(6-methylpyridin-3-yl)cyclopropyl]ethanone] | 107 | 71.9 |  |
| Cc1ccc([C@H]2C[C@@H]2CC(=O)N2Cc3nc(C(F)F)cc(C)c3C2)cn1 [Example 18, 1-[2-(difluoromethyl)-4-methyl-5,7-dihydro-6H-pyrrolo[3,4-b]pyridin-6-yl]-2-[(1R,2S)-2-(6-methylpyridin-3-yl)cyclopropyl]ethanone] | 89 | 37.7 |  |
| COc1cc(C)c2c(n1)CN(C(=O)CC1CN(c3cccnc3)C1)C2 [Example 21, 1-(2-methoxy-4-methyl-5,7-dihydro-6H-pyrrolo[3,4-b]pyridin-6-yl)-2-[1-(pyridin-3-yl)azetidin-3-yl]ethanone] | 86.6 | 23.9 |  |
| Cc1cc(CO)nc2c1CN(C(=O)CC1CN(c3ccncn3)C1)C2 [Example 24, 1-[2-(hydroxymethyl)-4-methyl-5,7-dihydro-6H-pyrrolo[3,4-b]pyridin-6-yl]-2-[1-(pyrimidin-4-yl)azetidin-3-yl]ethanone] | 93.8 | 31 |  |
| Cc1cc(C(F)F)nc2c1CN(C(=O)CC1CN(c3ccnc(OC(F)F)c3)C1)C2 [Example 25, 2-{1-[2-(difluoromethoxy)pyridin-4-yl]azetidin-3-yl}-1-[2-(difluoromethyl)-4-methyl-5,7-dihydro-6H-pyrrolo[3,4-b]pyridin-6-yl]ethanone] | 78.7 | 25.7 |  |

Now those with a lower EC50, led by results:

| Emax [%] | EC50 [nM] | M4 glosensor EC50 Mean Asymptote Maximum (%) | Structure (SMILES) |
| --- | --- | --- | --- |
|  | 15.9 | 111 | Cc1nc2c(c(C)c1C)CN(C(=O)C[C@@H]1C[C@H]1c1cccnc1)C2 (single isomer, unassigned) [Example 38, 2-[trans-2-(pyridin-3-yl)cyclopropyl]-1-(2,3,4-trimethyl-5,7-dihydro-6H-pyrrolo[3,4-b]pyridin-6-yl)ethanone] |
| 102 | 4.75 |  | Cc1nc2c(c(C)c1Cl)CN(C(=O)C[C@@H]1C[C@H]1c1cncnc1)C2 (single isomer, unassigned) [Example 51, 1-(3-chloro-2,4-dimethyl-5,7-dihydro-6H-pyrrolo[3,4-b]pyridin-6-yl)-2-[trans-2-(pyrimidin-5-yl)cyclopropyl]ethanone] |
| 98.2 | 8.88 |  | Cc1nc2c(c(C)c1C)CN(C(=O)CC1CN(c3ncns3)C1)C2 [Example 5, 2-[1-(1,2,4-Thiadiazol-5-yl)azetidin-3-yl]-1-(2,3,4-trimethyl-5,7-dihydro-6H-pyrrolo[3,4-b]pyridin-6-yl)ethanone] |
| 92.4 | 9.75 |  | Cc1cc(C(F)F)nc2c1CN(C(=O)CC1CN(c3ccnc(C(F)(F)F)c3)C1)C2 [Example 6, 1-[2-(Difluoromethyl)-4-methyl-5,7-dihydro-6H-pyrrolo[3,4-b]pyridin-6-yl]-2-{1-[2-(trifluoromethyl)pyridin-4-yl]azetidin-3-yl}ethanone] |
| 119 | 7.1 |  | Cc1nc2c(c(C)c1Cl)CN(C(=O)CC1CN(c3ccnc(C(F)F)c3)C1)C2 [Example 12, 1-(3-Chloro-2,4-dimethyl-5,7-dihydro-6H-pyrrolo[3,4-b]pyridin-6-yl)-2-{1-[2-(difluoromethyl)pyridin-4-yl]azetidin-3-yl}ethanone] |
| 101 | 2.04 |  | Cc1nc2c(c(C)c1Cl)CN(C(=O)CC1CN(c3cccnc3)C1)C2 [Example 13, 1-(3-Chloro-2,4-dimethyl-5,7-dihydro-6H-pyrrolo[3,4-b]pyridin-6-yl)-2-[1-(pyridin-3-yl)azetidin-3-yl]ethanone] |
| 109 | 4.82 |  | COc1nc2c(c(C)c1Cl)CN(C(=O)CC1CN(c3cccnc3)C1)C2 [Example 22, 1-(3-chloro-2-methoxy-4-methyl-5,7-dihydro-6H-pyrrolo[3,4-b]pyridin-6-yl)-2-[1-(pyridin-3-yl)azetidin-3-yl]ethanone] |
| 92.2 | 6.23 |  | Cc1nc2c(c(C)c1C)CN(C(=O)CC1CN(c3cccnc3)C1)C2 [Example 23, 2-[1-(pyridin-3-yl)azetidin-3-yl]-1-(2,3,4-trimethyl-5,7-dihydro-6H-pyrrolo[3,4-b]pyridin-6-yl)ethanone] |
